Source: PMC10122656, “Siglec-6 mediates the uptake of extracellular vesicles through a noncanonical glycolipid binding pocket” (Nature Communications, 2023)
Several values for one entry are separate records, joined by “and”; a condition that tells them apart may be missing. Identical values can stand only once.

Experiments:
[1] = test system: Siglec-1-Fc R116A; assay: Liposome over lectin assay (LOLA); assay type: binding, human; conditions: Siglec-1 R (arginine mutant); replicates
Protocol: Siglec-Fc constructs designed by Rodrigues et al.[30] were used in this work. Siglec-Fc constructs were expressed using WT CHO cells in cell culture media as described above with 1% HEPES. Cells incubated as described above for one-week post confluency. The supernatant was harvested and stored at 4 °C.
The purification was heavily inspired by Rodrigues et al.[30]. The purification of the Siglec-Fcs from supernatant began with Ni^2+ affinity chromatography using an AKTA FPLC equipped with a HisTrap Excel column (GE). The column was equilibrated with fifteen column volumes (CVs) of equilibrium buffer (500 mM NaCl, 20 mM NaPO4H2, pH 7.4). The Siglec-Fc containing supernatant was then loaded in its entirety onto the column. The column was then washed with fifteen CVs of wash buffer (500 mM NaCl, 30 mM imidazole, 20 mM NaPO4H2, pH 7.4). The Siglec-Fc was then eluted in 20 in 1 mL fractions with twenty CVs of elution buffer (500 mM NaCl, 500 mM imidazole, 20 mM NaPO4H2, pH 7.4). Fractions containing Siglec-Fc were compiled and then prepared for the next stage of purification by diluting the fractions 1:4 with buffer W (100 mM Tris–HCl, 150 mM NaCl, 1 mM EDTA, pH 8.0). A Strep-Tactin column (IBA life sciences) was washed with fifteen CVs of buffer W. The Siglec-Fc-buffer W solution was then loaded in its entirety onto the column. The bound Siglec-Fc was then washed with fifteen CVs of buffer W. Siglec-Fc was eluted from the column with 15 column volumes of buffer E (100 mM Tris–HCl, 150 mM NaCl, 1 mM EDTA, 10 mM d-Desthiobiotin, pH 8.0). Fractions containing Siglec-Fc were pooled and dialyzed against PBS to remove any d-Desthiobiotin. After dialysis, Siglec-Fcs were concentrated using an ultra-centrifugal device (30 kDa MWCO) and aliquoted into 5 µg aliquots, and frozen. The Siglec-Fcs were then lyophilized overnight, and the lyophilized Siglec-Fcs were stored at −20 °C.
Siglec-Fc in PBS was adsorbed to a 96-well flat-bottom fluorescent microplate by adding 1 µg/well and incubating the plate at 4 °C overnight. The plate was then washed with PBS followed by blocking with 5% (m/V) BSA in PBS for 1 h at room temperature. The plate was again washed with PBS and 100 µM liposome in PBS was added to each well. The plate was then incubated at 37 °C for 30 min followed by washing with PBS. PBS was then added to the plate and the fluorescence intensity (λex 640 nm, λem 680 nm) of each well was measured using a Molecular Devices SpectraMAX ® iD5.

[2] = molecular target: T1, Siglec-4 WT CHO cells (Homo sapiens, UniProt P20916); assay: Cell assay (liposome/EV binding, flow cytometry); assay type: cell-based; conditions: Sig-4 WT†; † after treatment of cells with neuraminidase; 3 mol% ganglioside liposomes; replicates
T1 construct: expressed in transfected cells
T1 sequence (P20916 20-626): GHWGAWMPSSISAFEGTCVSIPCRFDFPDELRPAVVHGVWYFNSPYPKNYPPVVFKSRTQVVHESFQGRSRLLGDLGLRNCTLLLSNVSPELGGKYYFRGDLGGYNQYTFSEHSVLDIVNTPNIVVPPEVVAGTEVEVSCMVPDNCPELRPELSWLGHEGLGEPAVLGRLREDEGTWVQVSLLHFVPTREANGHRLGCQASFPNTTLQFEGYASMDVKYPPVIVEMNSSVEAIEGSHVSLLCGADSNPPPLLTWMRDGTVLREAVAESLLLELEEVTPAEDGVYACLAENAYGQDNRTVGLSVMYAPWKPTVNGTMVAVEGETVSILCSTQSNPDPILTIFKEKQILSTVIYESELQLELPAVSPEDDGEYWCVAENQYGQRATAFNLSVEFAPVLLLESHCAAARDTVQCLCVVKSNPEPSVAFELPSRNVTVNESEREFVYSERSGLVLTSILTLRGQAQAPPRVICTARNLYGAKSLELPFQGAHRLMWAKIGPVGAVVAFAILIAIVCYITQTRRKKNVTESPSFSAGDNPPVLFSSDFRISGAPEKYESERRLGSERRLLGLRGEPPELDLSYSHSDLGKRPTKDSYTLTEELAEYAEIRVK
Protocol: Stock lipids (DSPC, Cholesterol, PEG45–DSPE) solutions were prepared by solvating the lipids in chloroform. An appropriate volume of each lipid solution was transferred to a glass test tube to reach the desired mol% of the component. The chloroform was then removed under N2 gas to yield a lipid thin film. Once dry, 100 µL of DMSO was added to the lipid-containing test tube and then the functional lipids (ganglioside, AF647–PEG45–DSPE, Siglec ligand–PEG45–DSPE, pHrodo–PEG45–DSPE, NGL) was added from their respect DMSO stock solution. The lipid mixture was then stored at −80 °C until completely frozen at which point excess DMSO was removed via lyophilization. Dry lipids were then stored at −80 °C until they were extruded. Lipid suppliers can be found in Supplementary Table 4.
Dry lipids were then hydrated in 1 mL of PBS. The lipids were then sonicated in a bath sonicator in a cycle of 1 min on, 5 min off for a total of five cycles. Liposomes were then extruded using an Avanti mini extruder first using an 800 nm filter and then a 100 nm filter yielding liposomes that were 130 ± 35 nm (Supplementary Table 5) measured using a Malvern Panalytical Zetasizer Nano S. Liposomes were stored at 4 °C.
200,000 cells/well were plated into a 96-well U-bottom microplate and centrifuged at 300 × g for 5 min. The cells were then resuspended in 50 µL of 50 µM liposome/50 µg/mL (protein concentration) of EV solution in DMEM F12 5% FBS and incubated at 37 °C for 30 min. Excess liposomes were then removed via centrifuged at 300 × g for 5 min followed by washing the cells with FACS solution. The cells were then resuspended in (1:250 V/V) anti-Siglec-flow buffer (1% V/V FBS, 500 µM, EDTA Hank’s Balanced Salt Solution pH 7.4), solution and left to rest on ice for 30 min. The cells were then centrifuged again at 300 × g for 5 min and the cells were resuspended in FACS buffer solution and were then ready for analysis by flow cytometry. Information regarding antibody clone, catalog number supplier, label isotype, and dilution can be found in Supplementary Table 6. The Siglec-positive cells were gated on for liposome-binding analysis (Supplementary Fig. 1b).
Flow cytometry measurements were collected on a 5-laser Fortessa X-20 (BD Bioscience). All the resulting data were analyzed using FlowJo (10.5.3) software (BD Biosciences).
Cells were harvested and resuspended in complete media with either Neuraminidase A or S. The cells were then placed in a 37 °C shaking incubator for 1 h. The cells were then washed with complete media and then the liposome binding assay was performed as described above.

Siglec-1-Fc R116A, sequence (Q9BZZ2 20-136 R116A limits assumed): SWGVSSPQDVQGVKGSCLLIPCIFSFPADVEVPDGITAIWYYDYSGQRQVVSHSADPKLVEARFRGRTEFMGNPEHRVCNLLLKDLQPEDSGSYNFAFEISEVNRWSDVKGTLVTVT

Row | Substance | LOLA: GLL binding, fluorescence plate reader (Fig. 2e) [1] | log10(MFI AF647) of GLL relative to log10(MFI AF647) of the same GLL against UT CHO cells (Fig. 2a) [2]
1 | GD1a | 8.88 and 7.01 and 5.82 and 9.99 and 5.45 | 1.02 and 0.9 and 0.95 and 0.88
2 | GD1b | – | 0.9 and 0.93 and 0.96 and 0.92
3 | GD3 | 6.08 and 3.44 and 4.47 and 3.34 and 3.26 | 0.51 (2×) and 0.52 and 0.5
4 | GM1 | 6.6 and 6.11 and 3.97 and 6.44 and 3.68 | 0.57 (2×) and 0.53 and 0.49
5 | GM2 | – | 0.08 (2×) and -0.03 and -0.04
6 | GM3 | – | -0.11 (2×) and -0.14 and -0.2
7 | GM4 | – | -0.3 and -0.1 and -0.11 and -0.09
8 | GQ1b | 6.93 and 2.97 and 4.43 and 6.13 and 5.67 | 0.13 and 0.12 and 0.1 and 0.11
9 | GT1b | – | 1.15 and 1 and 1.11 and 1.1
